We go through 1 molecule from patent publication US20250122253A1, “REGULATING MICROTUBULE DYNAMICS AS A THERAPEUTIC TARGET FOR NERVE REPAIR” (City University of Hong Kong, priority 2023, published 2025).

Assay [1] has as its system SCG10-positive regenerating axons of sciatic nerve. In words: Quantification of in vivo axon regeneration by SCG10 immunostaining (regeneration index). More on the design: species or system mice. Particulars: 3 days post-injury. The procedure:
Mice were perfused transcardially with 4% PFA, and L4/5 DRGs and sciatic nerves were harvested, post-fixed, cryoprotected and frozen in OCT compound (Tissue-Tek). For regenerating axon quantification, 12-μm thick longitudinal serial sections of sciatic nerve were blocked with 0.5% BSA/0.1% Triton X-100 (Sigma-Aldrich), and incubated with anti-SCG10 (a marker for regenerating sensory axons; 1:5,000; Novus Biologicals) primary antibodies. The sections were then incubated with secondary antibody conjugated with Alexa Fluor 555 (1:300; Molecular Probes). A series of z-stack images were taken at 20× magnifications using Nikon AXR confocal microscope equipped with a motorized stage and a resonant scanner, stitched, and maximally projected using NIS-Elements software.
To quantify regenerating axons, the SCG10 fluorescence intensity was measured at different distal distances away from the crush site using a line scan macro in ImageJ (NIH). A fluorescence intensity profile of SCG10 immunoreactivity was plotted by averaging the SCG10 intensity from 100 neighbouring pixels and normalized to that measured in the crushed site with maximal SCG10 immunoreactivity. For each mouse, at least 3 non-overlapping sections (at least 36 μm apart) were used and averaged from 12-15 sections per genotype or treatment group (n=4-5 per genotype or treatment group).

Assay [2] concerns pHDAC5. In words: Western blot of pHDAC5 in sciatic nerve segments 0-6 mm distal to the crush site. Particulars: regenerating axons of sciatic nerves 3 days post-injury. It is filed as in vivo, mice. The procedure: Ipsilateral L4/5 DRG neurons were harvested at various time points following sciatic nerve injury as indicated. Sciatic nerves were harvested 3 days after crush injury and segmented into 0-6 mm distal to the crush site. Each protein sample was pooled from 3 mice. DRG neurons and segmented sciatic nerves were mechanically dissociated with protein lysis buffer, and subjected to measurement of protein concentration using protein BCA assay (Pierce). Protein lysate (30 μg) was separated on 4-12% NuPAGE Tris-Glycine precast gel (Invitrogen). Protein was then transferred onto a PVDF membrane (Bio-Rad) and blocked with 5% non-fat milk (Bio-Rad) in TBS-T. The membrane was incubated with anti-FMN2 (1:500; ProteinTech), anti-phosphorylated HDAC5 (1:500, ThermoFisher), anti-HDAC5 (1:500, Novus Biologicals), anti-acetylated tubulin (1:10,000; Sigma-Aldrich), anti-NeuN (1:500; Millipore), anti-SOX10 (1:500; Abcam), anti-IBA-1 (1:1,000; Wako), anti-GFP (1:1,000; Cell Signaling), and anti-GAPDH antibodies (1:2,000; ProteinTech) as loading controls. The membrane was incubated with secondary antibody conjugated with horseradish peroxidase (1:2,000; Thermo-Fisher). Signals were detected using West Femto Maximum Sensitivity Substrate Kit (Thermo Scientific). […] Band intensities were measured using Image Lab software (Bio-Rad). […]
For orientation: A western blot detects proteins with antibodies after separation by electrophoresis.

Assay [3] relates to hindlimb muscle strength. In words: Hindlimb grip strength measurement after sciatic nerve crush. It is filed as in vivo, mice. Particulars: from day 11 to 23. As to the method:
(§1) Adult male Fmn2^−/− mice (8-12 weeks old) and their age-matched WT littermates, or adult male C57BL/6 mice (for whole-body X-ray, AAV2/9-Fmn2-shRNA and metaxalone experiments) were trained and habituated one week before the sciatic nerve crush injury. After three independent training sessions (30 minutes per session with two days break), baseline values were taken, and sciatic nerve crush injury were performed one day after the baseline recordings. Function recovery was monitored for 30 days. On day 3 after the sciatic nerve crush, we first perform pinprick assay and followed by motor function assays every other day in a sequential manner (toe spreading, grip strength, and sciatic functional index) with 30 mins apart from each test. Animal behavioural tests were done blinded to the surgery and genotypes.
Muscle strength from hindlimbs were measured using a grip strength meter (BIO-GS3, Bioseb). To measure the grip strength of both hindlimbs, their hindlimbs were positioned to grip a metal T-bar connected to the grip strength meter, while their forelimbs were rested on a plastic bar. The mice were then gently pulled off from the T-bar. The values at which the mouse left the T-bar reflected the grip strength in grams. The average grip strength was taken from at least 5 consecutive grip strength measurements per animal. […]

Assay [4] relates to motor function of injured hindlimb. In words: Toe spreading reflex (motor function recovery) after sciatic nerve crush. In kind it is in vivo, mice. The procedure:
as §1
To assess toe spreading reflex following PNI, mice were covered by a piece of cotton, lifted up by the tails, and uncovered their hindlimbs for assessment. Toe spreading reflex was scored as follow: 0 for no spreading, 1 for intermediate spreading with all toes separated for less than 2 seconds, and 2 for full spreading with all toes completely and widely spread, and sustained for at least two seconds. Mice were scored only when a full response was observed on the contralateral side (uninjured hindlimbs). Mice were assessed twice with 30-minute time interval in between.
To examine the therapeutic potential of metaxalone, adult mice received daily intraperitoneal injection of metaxalone at 10 mg/kg immediately after injury for 21 consecutive days (i.e., metaxalone treatment) or delaying daily intraperitoneal injection of metaxalone at 10 mg/kg to 24 hours post-injury for 20 consecutive days (i.e., delayed metaxalone treatment), and all metaxalone treatments ended on day 21 post-injury. The mice were then subjected to sensory and motor function recovery tests and weekly EMG recordings for 28 days post-injury.

Setting [5] is: 10 mg/kg intraperitoneally immediately after PNI.

Take `Cc1cc(C)cc(OCC2CNC(=O)O2)c1` (stereo not drawn) [metaxalone]: the “regeneration index at the region over 4.5 mm, delayed treatment” value in assay [1] (treatment delayed by 24 hours) amounted to 0.40. Moreover, the “regeneration index at the region over 4.5 mm” value in assay [1] (treatment immediately after injury) is given as 0.34. The “number of SCG10-positive regenerating axons at 4.5 mm distal to the crush injury site” value in assay [1] (vs vehicle controls) is “significant increase”. The “protein expression of pHDAC5” value in assay [2] was “substantial increase”. The “hindlimb grip strength recovery vs controls” value in assay [3] (immediate treatment 10 mg/kg) is given as “significantly higher”. The “hindlimb grip strength recovery vs controls, delayed treatment” value in assay [3] (treatment delayed 24 hours, 10 mg/kg) is listed as “significantly higher”. For the same molecule, the “additional time vs metaxalone-treated mice to recover 50% and to fully regain toe spreading reflex, delayed treatment” value in assay [4] (10 mg/kg intraperitoneally delayed to 24 hours post-injury) was determined as 1 days. Moreover, in assay [4] (setting [5]), the “time to fully regain toe spreading reflex” value was 19 days and the “time to recover 50% of toe spreading reflex (reaching score 1)” value came out at 14 days.
